According to patent US20230081426A1, “COMPOUNDS AND METHODS FOR KRAS MODULATION AND INDICATIONS THEREFOR” (Plexxikon Inc., priority 2020, published 2023):

Key:
[1] = molecular target: T1, G12D-mutant human KRAS (amino acid residues 1-188) (Homo sapiens, UniProt P01116, G12D); assay: KRAS Binding Disruption Assay (AlphaScreen; biotinylated KRpep-2d analogue or RAF1-RBD), G12D; details: KRAS G12D; geometric mean; read-out: KRAS GMean IC50 (uM) MUTATION: G12D
T1 construct: G12D or G12C-mutant human KRAS (amino acid residues 1-188) with FLAG tag; made in house; host or cells: E. coli
Method in brief: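 Compounds are titrated against 5-20 nM mutant KRAS and 5-20 nM of either a biotinylated KRpep-2d analogue or RAF1-RBD, incubated 1 h at 25° C. Disruption is detected as reduced Alpha signal after 1 h with donor and acceptor beads at 10 μg/mL.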

[2] = molecular target: T2, G12V-mutant human KRAS (amino acid residues 1-188) (Homo sapiens, UniProt P01116, G12V); assay: KRAS Binding Competition Assay (AlphaScreen; biotinylated KRpep-2d analogue), G12V; details: geometric mean, read-out: KRAS GMean IC50 (uM) MUTATION: G12V
T2 construct: G12V-mutant human KRAS (amino acid residues 1-188) with FLAG tag was purified from E. coli; made in house; host or cells: E. coli

Row | IC50 [1] | IC50 [2] | Compound
1 | 10 to 100 µM | 10 to 100 µM | CN1CCC[C@H]1COc1nc(N2[C@@H]3CC[C@H]2CN(C(=O)CC2CCNCC2)C3)c2ccc(-c3cc(O)cc4ccccc34)cc2n1 [P-0189, 1-((1R,5S)-8-(7-(3-hydroxynaphthalen-1-yl)-2-(((S)-1-methylpyrrolidin-2-yl)methoxy)quinazolin-4-yl)-3,8-diazabicyclo[3.2.1]octan-3-yl)-2-(piperidin-4-yl)ethan-1-one]
2 | 10 to 100 µM | 10 to 100 µM | CN1CCC[C@H]1COc1nc(N2[C@@H]3CC[C@H]2CN(C(=O)CC2CCCNC2)C3)c2ccc(-c3cc(O)cc4ccccc34)cc2n1 (stereo partly drawn) [P-0190, 1-((1R,5S)-8-(7-(3-hydroxynaphthalen-1-yl)-2-(((S)-1-methylpyrrolidin-2-yl)methoxy)quinazolin-4-yl)-3,8-diazabicyclo[3.2.1]octan-3-yl)-2-(piperidin-3-yl)ethan-1-one]
3 | 10 to 100 µM | 10 to 100 µM | CN1CCC[C@H]1COc1nc(N2[C@@H]3CC[C@H]2CN(C(=O)CCC2CCCCN2)C3)c2ccc(-c3cc(O)cc4ccccc34)cc2n1 (stereo partly drawn) [P-0191, 1-((1R,5S)-8-(7-(3-hydroxynaphthalen-1-yl)-2-(((S)-1-methylpyrrolidin-2-yl)methoxy)quinazolin-4-yl)-3,8-diazabicyclo[3.2.1]octan-3-yl)-3-(piperidin-2-yl)propan-1-one]
4 | 10 to 100 µM | 10 to 100 µM | CN1CCC[C@H]1COc1nc(N2[C@@H]3CC[C@H]2CN(C(=O)CCC2CCCNC2)C3)c2ccc(-c3cc(O)cc4ccccc34)cc2n1 (stereo partly drawn) [P-0192, 1-((1R,5S)-8-(7-(3-hydroxynaphthalen-1-yl)-2-(((S)-1-methylpyrrolidin-2-yl)methoxy)quinazolin-4-yl)-3,8-diazabicyclo[3.2.1]octan-3-yl)-3-(piperidin-3-yl)propan-1-one]
5 | 10 to 100 µM | 10 to 100 µM | CN1CCC[C@H]1COc1nc(N2[C@@H]3CC[C@H]2CN(C(=O)CCC2CCNCC2)C3)c2ccc(-c3cc(O)cc4ccccc34)cc2n1 [P-0193, 1-((1R,5S)-8-(7-(3-hydroxynaphthalen-1-yl)-2-(((S)-1-methylpyrrolidin-2-yl)methoxy)quinazolin-4-yl)-3,8-diazabicyclo[3.2.1]octan-3-yl)-3-(piperidin-4-yl)propan-1-one]
6 | 10 to 100 µM | 10 to 100 µM | CN1CCC[C@H]1COc1nc(N2[C@@H]3CC[C@H]2CN(C(=O)CCC2CNCCN2)C3)c2ccc(-c3cc(O)cc4ccccc34)cc2n1 (stereo partly drawn) [P-0194, 1-((1R,5S)-8-(7-(3-hydroxynaphthalen-1-yl)-2-(((S)-1-methylpyrrolidin-2-yl)methoxy)quinazolin-4-yl)-3,8-diazabicyclo[3.2.1]octan-3-yl)-3-(piperazin-2-yl)propan-1-one]
7 | 10 to 100 µM | 10 to 100 µM | CN1CCC[C@H]1COc1nc(N2[C@@H]3CC[C@H]2CN(C(=O)CCCn2ccnc2)C3)c2ccc(-c3cc(O)cc4ccccc34)cc2n1 [P-0195, 1-((1R,5S)-8-(7-(3-hydroxynaphthalen-1-yl)-2-(((S)-1-methylpyrrolidin-2-yl)methoxy)quinazolin-4-yl)-3,8-diazabicyclo[3.2.1]octan-3-yl)-4-(1H-imidazol-1-yl)butan-1-one]
8 | 10 to 100 µM | 10 to 100 µM | CN1CCC[C@H]1COc1nc(N2[C@@H]3CC[C@H]2CN(C(=O)CC2CCCC2O)C3)c2ccc(-c3cc(O)cc4ccccc34)cc2n1 (stereo partly drawn) [P-0196, 2-(2-hydroxycyclopentyl)-1-((1R,5S)-8-(7-(3-hydroxynaphthalen-1-yl)-2-(((S)-1-methylpyrrolidin-2-yl)methoxy)quinazolin-4-yl)-3,8-diazabicyclo[3.2.1]octan-3-yl)ethan-1-one]
9 | 0.0001 to 10 µM | 10 to 100 µM | N#Cc1ccc(CCc2nc(N3[C@@H]4CC[C@H]3CNC4)c3ccc(-c4cc(O)cc5ccccc45)cc3n2)cc1 [P-0197, 4-(2-(4-((1R,5S)-3,8-diazabicyclo[3.2.1]octan-8-yl)-7-(3-hydroxynaphthalen-1-yl)quinazolin-2-yl)ethyl)benzonitrile]
10 | 0.0001 to 10 µM | 10 to 100 µM | O=C(O)CCc1nc(N2[C@@H]3CC[C@H]2CNC3)c2ccc(-c3cc(O)cc4ccccc34)cc2n1 [P-0198, 3-(4-((1R,5S)-3,8-diazabicyclo[3.2.1]octan-8-yl)-7-(3-hydroxynaphthalen-1-yl)quinazolin-2-yl)propanoic acid]
11 | 10 to 100 µM | 10 to 100 µM | CN(C)C(=O)CCc1nc(N2[C@@H]3CC[C@H]2CNC3)c2ccc(-c3cc(O)cc4ccccc34)cc2n1 [P-0199, 3-(4-((1R,5S)-3,8-diazabicyclo[3.2.1]octan-8-yl)-7-(3-hydroxynaphthalen-1-yl)quinazolin-2-yl)-N,N-dimethylpropanamide]
12 | 0.0001 to 10 µM | 10 to 100 µM | Oc1cc(-c2ccc3c(N4[C@@H]5CC[C@H]4CNC5)nc(CC4CCNCC4)nc3c2)c2ccccc2c1 [P-0200, 4-(4-((1R,5S)-3,8-diazabicyclo[3.2.1]octan-8-yl)-2-(piperidin-4-ylmethyl)quinazolin-7-yl)naphthalen-2-ol]
13 | 0.0001 to 10 µM | 10 to 100 µM | CN1CCC(Cc2nc(N3[C@@H]4CC[C@H]3CNC4)c3ccc(-c4cc(O)cc5ccccc45)cc3n2)CC1 [P-0201, 4-(4-((1R,5S)-3,8-diazabicyclo[3.2.1]octan-8-yl)-2-((1-methylpiperidin-4-yl)methyl)quinazolin-7-yl)naphthalen-2-ol]
14 | 0.0001 to 10 µM | 10 to 100 µM | CN1CCC[C@H]1COc1nc(N2[C@@H]3CC[C@H]2CN(C(=O)[C@@H]2C[C@@H](O)CN2)C3)c2ccc(-c3cc(O)cc4ccccc34)cc2n1 [P-0202, ((1R,5S)-8-(7-(3-hydroxynaphthalen-1-yl)-2-(((S)-1-methylpyrrolidin-2-yl)methoxy)quinazolin-4-yl)-3,8-diazabicyclo[3.2.1]octan-3-yl)((2S,4R)-4-hydroxypyrrolidin-2-yl)methanone]
15 | 0.0001 to 10 µM | 0.0001 to 10 µM | CN1CCN(CCCS(=O)(=O)N2[C@@H]3CC[C@H]2CN(c2nc(OCC45CCCN4CCC5)nc4c(F)c(-c5cc(O)cc6ccccc56)ccc24)C3)CC1 [P-0203, 4-(8-fluoro-4-((1R,5S)-8-((3-(4-methylpiperazin-1-yl)propyl)sulfonyl)-3,8-diazabicyclo[3.2.1]octan-3-yl)-2-((tetrahydro-1H-pyrrolizin-7a(5H)-yl)methoxy)quinazolin-7-yl)naphthalen-2-ol]
16 | 10 to 100 µM | 10 to 100 µM | CN1CCC[C@H]1COc1nc(N2[C@@H]3CC[C@H]2CN(C(=O)[C@@H]2C[C@@H](O)CN2)C3)c2ccc(-c3cc(O)cc4ccccc34)cc2n1 [P-0204, ((1R,5S)-8-(7-(3-hydroxynaphthalen-1-yl)-2-(((S)-1-methylpyrrolidin-2-yl)methoxy)quinazolin-4-yl)-3,8-diazabicyclo[3.2.1]octan-3-yl)((2S,4R)-4-hydroxypyrrolidin-2-yl)methanone]
17 | 10 to 100 µM | 100 to 1000 µM | CN1CCC[C@H]1COc1nc(N2[C@@H]3CC[C@H]2CN(C(=O)[C@H]2CCCN2)C3)c2ccc(-c3cc(O)cc4ccccc34)cc2n1 [P-0205, 4-((1R,5S)-3-(D-prolyl)-3,8-diazabicyclo[3.2.1]octan-8-yl)-7-(3-hydroxynaphthalen-1-yl)-2-(((S)-1-methylpyrrolidin-2-yl)methoxy)quinazoline]
18 | 10 to 100 µM | 10 to 100 µM | CNCC(=O)N1C[C@H]2CC[C@@H](C1)N2c1nc(OC[C@@H]2CCCN2C)nc2cc(-c3cc(O)cc4ccccc34)ccc12 [P-0206, 1-((1R,5S)-8-(7-(3-hydroxynaphthalen-1-yl)-2-(((S)-1-methylpyrrolidin-2-yl)methoxy)quinazolin-4-yl)-3,8-diazabicyclo[3.2.1]octan-3-yl)-2-(methylamino)ethan-1-one]
19 | 10 to 100 µM | 10 to 100 µM | CN1CCC[C@H]1COc1nc(N2[C@@H]3CC[C@H]2CN(C(=O)Cn2ccnc2)C3)c2ccc(-c3cc(O)cc4ccccc34)cc2n1 [P-0207, 1-((1R,5S)-8-(7-(3-hydroxynaphthalen-1-yl)-2-(((S)-1-methylpyrrolidin-2-yl)methoxy)quinazolin-4-yl)-3,8-diazabicyclo[3.2.1]octan-3-yl)-2-(1H-imidazol-1-yl)ethan-1-one]
20 | 0.0001 to 10 µM | 10 to 100 µM | CN1CCC[C@H]1COc1nc(N2[C@@H]3CC[C@H]2CN(C(=O)NC2CN4CCC2CC4)C3)c2ccc(-c3cc(O)cc4ccccc34)cc2n1 (stereo partly drawn) [P-0208, (1R,5S)-8-(7-(3-hydroxynaphthalen-1-yl)-2-(((S)-1-methylpyrrolidin-2-yl)methoxy)quinazolin-4-yl)-N-(quinuclidin-3-yl)-3,8-diazabicyclo[3.2.1]octane-3-carboxamide]
21 | 10 to 100 µM | 10 to 100 µM | CN1CCN(CCNC(=O)N2C[C@H]3CC[C@@H](C2)N3c2nc(OC[C@@H]3CCCN3C)nc3cc(-c4cc(O)cc5ccccc45)ccc23)CC1 [P-0209, (1R,5S)-8-(7-(3-hydroxynaphthalen-1-yl)-2-(((S)-1-methylpyrrolidin-2-yl)methoxy)quinazolin-4-yl)-N-(2-(4-methylpiperazin-1-yl)ethyl)-3,8-diazabicyclo[3.2.1]octane-3-carboxamide]
22 | 10 to 100 µM | 10 to 100 µM | CN1CCC[C@H]1COc1nc(N2[C@@H]3CC[C@H]2CN(C(=O)Nc2cccnc2)C3)c2ccc(-c3cc(O)cc4ccccc34)cc2n1 [P-0210, (1R,5S)-8-(7-(3-hydroxynaphthalen-1-yl)-2-(((S)-1-methylpyrrolidin-2-yl)methoxy)quinazolin-4-yl)-N-(pyridin-3-yl)-3,8-diazabicyclo[3.2.1]octane-3-carboxamide]
